In patent publication US3954995A, “Mono-and disubstituted hydroxyguanidines in the treatment of depression” (E. I. Du Pont de Nemours and Company, priority 1974, dated 1976):
Where two headings read alike, the source gives them in different places.

Experiments:
[1] = tested on: tetrabenazine-induced sedation in mice; assay: Antitetrabenazine test: prevention of tetrabenazine-induced sedation and depression (exploratory activity and ptosis); format: in vivo, mice (Carworth CF1 S female); conditions: Mus musculus, po, 1 h
Method: This mouse test is predictive of human antidepressant response (Everett, G. M., "The Dopa Response Potentiation Test and Its Use in Screening for Antidepressant Drugs", pp. 164-167 in "Antidepressant Drugs", Proceedings of the First International Symposium, S. Garattini and M. N. G. Dukes, eds., 1967).
Groups of 10 Carworth CF1 S female mice, 18-21 g each, were fasted 1.5 hours and were intubated with a hydroxyguanidine as antagonist to tetrabenazine at oral doses of 5, 25 and 125 mg/kg in 0.20 ml of 1% methyl cellulose (Methocel.) Thirty minutes later the mice were challenged with tetrabenazine, 32 mg/kg intraperitoneally (dissolved in 0.20 ml of 0.05M KCl at pH 2.0). One hour after the hydroxyguanidine compound (30 minutes after tetrabenzine) the mice were examined for signs of exploratory activity and ptosis (eye-lid closure). Normal exploratory activity (relief from sedation) was recorded when a mouse lifted by the tail from a group of 10 in a testing box and placed on a stainless steel testing box lid (12.5 inch × 8 inch × 0.33 inch mesh) either turned its head horizontally 30° or moved to the edge of the screen withi 10 seconds after being placed on the screen. Relief from ptosis was recorded when exactly 2 seconds after placing the mouse facing the observer, lid closure was less than 50% in both eyes.

[2] = tested on: tetrabenazine-induced sedation in mice; assay: as above; format: in vivo, mice (Carworth CF1 S female); conditions: up to 81 mg/kg
[3] = tetrabenazine 32 mg/kg i.p. 30 min later, read 1 h after compound, read-out: Antitetrabenazine ED 50, Exploratory
[4] = tetrabenazine 32 mg/kg i.p. 30 min later, read 1 h after compound, read-out: Antitetrabenazine ED 50, Ptosis (dose which blocked ptosis in 50% of the mice)
[5] = tested as hydroxyguanidine HCl salt, tetrabenazine 32 mg/kg i.p., read-out: Antitetrabenazine ED 50, Exploratory
[6] = tested as hydroxyguanidine HCl salt, tetrabenazine 32 mg/kg i.p., read-out: Antitetrabenazine ED 50, Ptosis

COc1ccc(N(C)C(N)=NO)cc1 [Example 14, 1-p-methoxyphenyl-1-methylhydroxyguanidine]
ED50 [1, 3]: > 81 mg/kg | ED50 [1, 4]: 20.5 mg/kg

Cc1ccc(N(C)C(N)=NO)cc1 [Example 13, 1-p-tolyl-1-methylhydroxyguanidine]
ED50 [1, 3]: 3 mg/kg | ED50 [1, 4]: 0.88 mg/kg

CN(Cc1ccc([N+](=O)[O-])cc1)C(N)=NO [Example 8, 1-p-nitrobenzyl-1-methylhydroxyguanidine]
ED50 [1, 3]: > 81 mg/kg | ED50 [1, 4]: 47 mg/kg

CN(C(N)=NO)C1CCCCC1 [Example 18, 1-cyclohexyl-1-methylhydroxyguanidine]
ED50 [1, 3]: > 81 mg/kg | ED50 [1, 4]: 9 mg/kg

CN(C(N)=NO)c1ccccc1 [Example 1, 1-phenyl-1-methylhydroxyguanidine]
ED50 [1, 5]: 9 mg/kg | ED50 [1, 6]: 1.1 mg/kg | ED50 [1, 3]: > 81 mg/kg | ED50 [1, 4]: 1.1 mg/kg

CN(C(N)=NO)C1CCCC1 [Example 25, 1-cyclopentyl-1-methylhydroxyguanidine]
ED50 [1, 5]: > 81 mg/kg | ED50 [1, 6]: 3 mg/kg

CNC(=NO)Nc1ccccc1 [Example 26, 1-Phenyl-3-methyl-2-hydroxyguanidine]
ED50 [1, 3]: > 81 mg/kg | ED50 [1, 4]: 12.2 mg/kg

COc1ccc(CN(C)C(N)=NO)cc1 [Example 4, 1-p-methoxybenzyl-1-methylhydroxyguanidine]
ED50 [1, 3]: > 81 mg/kg | ED50 [1, 4]: 59 mg/kg

NC(=NO)NCc1ccccc1 [Example 19, 1-benzylhydroxyguanidine]
ED50 [1, 5]: > 81 mg/kg | ED50 [1, 6]: 12.5 mg/kg

Cc1cccc(N(C)C(N)=NO)c1 [Example 24, 1-m-tolyl-1-methylhydroxyguanidine]
ED50 [1, 4]: 0.4 mg/kg

CN(Cc1cccc(Cl)c1)C(N)=NO [Example 20, 1-m-chlorobenzyl-1-methylhydroxyguanidine]
ED50 [1, 3]: > 81 mg/kg | ED50 [1, 4]: 0.4 mg/kg

CCCN(C(N)=NO)c1ccccc1 [Example 17, 1-phenyl-1-n-propylhydroxyguanidine]
ED50 [1, 3]: > 81 mg/kg | ED50 [1, 4]: 20 mg/kg

CNC(=NO)NCc1ccccc1 [Example 27, 1-Benzyl-3-methyl-2-hydroxyguanidine]
Activity in the antitetrabenazine screen [2]: inactive

CN(Cc1ccc(F)cc1)C(N)=NO [Example 5, 1-p-fluorobenzyl-1-methylhydroxyguanidine]
ED50 [1, 3]: > 81 mg/kg | ED50 [1, 4]: 8.1 mg/kg

CN(Cc1ccccc1)C(N)=NO [Example 2, 1-benzyl-1-methylhydroxyguanidine]
ED50 [1, 5]: > 81 mg/kg | ED50 [1, 6]: 0.43 mg/kg | ED50 [1, 3]: 9 mg/kg | ED50 [1, 4]: 0.18 mg/kg

CN(C(N)=NO)c1cccc(Cl)c1 [Example 22, 1-m-chlorophenyl-1-methylhydroxyguanidine]
ED50 [1, 3]: > 81 mg/kg | ED50 [1, 4]: 0.7 mg/kg

CN(Cc1ccc(Cl)cc1)C(N)=NO [Example 10, 1-p-chlorobenzyl-1-methylhydroxyguanidine]
ED50 [1, 3]: > 81 mg/kg | ED50 [1, 4]: 10.8 mg/kg

Cc1ccc(N(C)C(N)=NO)cc1C [Example 23, 1-(3,4-xylyl)-1-methylhydroxyguanidine]
ED50 [1, 3]: > 81 mg/kg | ED50 [1, 4]: 4.9 mg/kg

CN(Cc1ccc(Br)cc1)C(N)=NO [Example 6, 1-p-bromobenzyl-1-methylhydroxyguanidine]
ED50 [1, 3]: > 81 mg/kg | ED50 [1, 4]: 17.4 mg/kg

CN(Cc1ccc(Cl)c(Cl)c1)C(N)=NO [Example 9, 1-(3,4-dichlorobenzyl)-1-methylhydroxyguanidine]
ED50 [1, 3]: > 81 mg/kg | ED50 [1, 4]: 4.8 mg/kg

CCN(C(N)=NO)c1ccccc1 [Example 12, 1-phenyl-1-ethylhydroxyguanidine]
ED50 [1, 3]: 15.6 mg/kg | ED50 [1, 4]: 3 mg/kg

Cc1ccc(CN(C)C(N)=NO)cc1 [Example 7, 1-p-methylbenzyl-1-methylhydroxyguanidine]
ED50 [1, 3]: > 81 mg/kg | ED50 [1, 4]: 23 mg/kg

CN(C(N)=NO)c1ccc(Cl)cc1 [Example 11, 1-p-chlorophenyl-1-methylhydroxyguanidine]
ED50 [1, 3]: 81 mg/kg | ED50 [1, 4]: 0.82 mg/kg

CN(Cc1cccc([N+](=O)[O-])c1)C(N)=NO [Example 21, 1-m-nitrobenzyl-1-methylhydroxyguanidine]
ED50 [1, 3]: > 81 mg/kg | ED50 [1, 4]: 66 mg/kg

CCN(Cc1ccccc1)C(N)=NO [Example 3, 1-benzyl-1-ethylhydroxyguanidine]
ED50 [1, 3]: 9 mg/kg | ED50 [1, 4]: 0.39 mg/kg
